# Assay results from patent US4822408A, “Alkyl-, alkenyl- and alkynylnitroguanidines as cytokinin plant growth regulants” (American Cyanamid Company, priority 1987, dated 1989).
# Values joined by “and” are separate entries in the source; they are usually repeats but may differ in a detail not shown here. Equal values may be shown once. Read-outs that look alike come from different tables or passages of the source.
# How the values were obtained:
# cucumber cotyledon = assay: tissue or blood; assay type: cell-based, Cucumis sativa var. National Pickling; settings: 0.06-64 ppm typically tested, inactive if more than 200 ppm; for EC50: Cucumis sativus, read-out: ED50 (the source's name)
# [1] = tested on: habituated callus tissue (Nicotiana tabacum A21-10H); assay: Stimulation of callus growth from a habituated line of Nicotiana tabacum; assay type: cell-based; set-up: key to Chlorophyll production: -: None; +: Slight; ++: Moderate; +++: Very Good; settings: for Callus Growth Fresh weight: 0.02 ppm naphthalene acetic acid, untreated 0.6; for Chlorophyll production: untreated -
# Experimental: A specialized callus tissue (Nicotiana tabacum A21-10H) which was known to be unique in that it had been selected to no longer require cytokinins for callus to grow (this condition is known as "habituated") as long as 2 ppm naphthalene acetic acid was present in the medium, is transferred to flasks of basal media containing mineral salts based on the formulation of Murashige and Skoog, Physiologia plantarum 15: 473-497 (1962), and containing 100 mg per liter of i-inositol, 0.4 mg per liter of thiamine.HCl, and 3% sucrose (Huang, L. C. and T. Murashige 1976, TCA manual 3(1): 539-548) as well as 0.9% to 0.95% Difco® agar. The pH of the medium is adjusted to pH 5.8.
# Test solutions are added from 5000 ppm stock solutions in ethanol and the stimulation of callus growth determined by the increase in fresh weight per treatment (per flask) in grams and by chlorophyll production rated as indicated in the rating system below. (No shoot regeneration can occur in this line due to the length of time (>4 years) it has been maintained in culture.)
# cucumber cotyledons = assay: Antagonism of cytokinin activity by a cytokinin antagonist in the cucumber cotyledon bioassay; assay type: cell-based, Cucumis sativa var. National Pickling
# Experimental: Cucumber seeds (Cucumis sativa var. National Pickling) are germinated in vermiculite in the dark at 30° C. for 6 days. The cotyledons are subsequently excised under a dim green safelight and placed abaxial side up in […] petri dishes at 8 pairs of cotyledons per dish. The dishes also contain three layers of Whatman No. 1 filter paper and 10 mls of test solution. The dishes with cotyledons are returned to the dark at 30° C. for about 18 hours. Thereafter the dishes are placed under fluorescent light at about 12 μw per square cm for 3 hours at 25° C. The cotyledons are then blotted and placed in 5 ml of dimethylformamide overnight and at 4° C. to extract the chlorophyll. The leachate is then analyzed for absorbance at 663 nanometers by spectrophotometry (Moran and Porath Plant Physical (1980) 65: 478-9) to determine relative chlorophyll biosynthesis. The cotyledons are then measured for area by using a sensitive leaf area meter. These two parameters, chlorophyll synthesis and enhanced expansion of the cotyledons are used as a measure of relative cytokinin activity. The test solutions typically contain between 0.06 and 64 ppm of test compound, up to 1.3% acetone, and 40 mM KCl. The amount of compound is varied in order to determine the dose at which there is achieved a response which is 50% of the maximum possible enhancement, as judged by a standard. This is termed the 50% effective dose or ED50 (Table).
# The above compound is a known (Hecht et al.) Biochemistry 10:4224 (1971) antagonist of the activity of cytokinins such as the natural cytokinin 6-(3-methyl-2-butenylamino)purine (2iP). For example 0.003 μM 2iP is required for maximum growth of tobacco callus tissue cultures. The antagonist decreases this effect in the range of 0.1 μM (detectable) to 0.73 μM (lethal). (Ref. Skoog et al. Phytochemistry 12: 25-37 (1973)).
# Test solutions are prepared to contain a test compound in both the presence and absence of the antagonist.
# Soybean callus = Soybean callus culture bioassay (definitive cytokinin activity); assay type: cell-based, Glycine max CV. Acme; settings: for Callus Dry Weight / Callus Fresh Weight: 6 weeks, 3 flasks per treatment; for Callus Dry Weight: no supplement 22.2 ± 9; for Callus Fresh Weight: initial fresh weight 240 mg, no supplement 283 ± 99
# Experimental: Soybean callus cultures (from Glycine max CV. Acme) are subdivided into smaller callus pieces each weighing about 80 mg each. These pieces are placed on 50 ml of agar containing nutrient medium from which the usual growth supporting cytokinin hormone has been deleted. Without cytokinin hormone, the callus tissue will not divide and grow. Any compound which can provide for growth of the callus under these circumstances is by definition a cytokinin. The test is thus definitive and diagnostic. Different flasks of the nutrient medium are therefore supplemented with either the known cytokinin N^6 -benzyladenine as a standard or with the indicated test compound. After 6 weeks of axenic culture, the callus pieces are weighed, then oven dried and weighed again, such that the amount of callus growth is determined as a function of increased tissue weight.
# [2] = tested on: tobacco callus tissue cultures; settings: cited from earlier work
structure (smiles),measurement,setting,value
CC(C)NC(=N)N[N+](=O)[O-] [(CH3)2 CH],ED50,cucumber cotyledon,45 ppm
c1coc(CNc2ncnc3[nH]cnc23)c1 [Kinetin],Callus Growth Fresh weight,[1]; Molar concentration 10^-4,1.4 grams per flask
same,Chlorophyll production,[1]; Molar concentration 10^-4,-
same,Callus Growth Fresh weight,[1]; Molar concentration 10^-5,0.8 grams per flask
same,Chlorophyll production,[1]; Molar concentration 10^-5,-
same,Callus Growth Fresh weight,[1]; Molar concentration 10^-6,0.3 grams per flask
same,Chlorophyll production,[1]; Molar concentration 10^-6,-
same,Callus Growth Fresh weight,[1]; Molar concentration 10^-7,0.2 grams per flask
same,Chlorophyll production,[1]; Molar concentration 10^-7,-
same,efficacy in the habituated callus system,[1]; reduced auxin level (0.02 ppm naphthalene acetic acid),ineffective
CC(C)=CCNC(=N)N[N+](=O)[O-] [1-(3-methyl-2-butenyl)-3-nitroguanidine],Callus Growth Fresh weight,[1]; Molar concentration 10^-4,2.9 grams per flask
same,Chlorophyll production,[1]; Molar concentration 10^-4,++
same,EC50,cucumber cotyledon,3.8 µg/mL
same,Relative Chlorophyll,"cucumber cotyledons; Experiment B, 20 ppm, antagonist none, H2O alone 443",1200
same,Relative Chlorophyll,"cucumber cotyledons; Experiment B, 20 ppm, with antagonist 10 ppm, H2O alone 443",388
same,effect on callus growth at 10^-4 M,Soybean callus; 10^-4 M,extremely active
same,Callus Dry Weight,Soybean callus; 10^-4 M,410 ± 87 mg per 3 pieces
same,Callus Fresh Weight,Soybean callus; 10^-4 M,5324 ± 1148 mg per 3 pieces
COCC(C)NC(=N)N[N+](=O)[O-] (centres unmarked) [CH3 OCH2 CH(CH3)],EC50,cucumber cotyledon,113 µg/mL
CCCCNC(=N)N[N+](=O)[O-] [-n-C4 H9],EC50,cucumber cotyledon,31 µg/mL
C=CCNC(=N)N[N+](=O)[O-] [CH2CHCH2],ED50,cucumber cotyledon,22 ppm
CC(C)CCNC(=N)N[N+](=O)[O-] [(CH3)2 CHCH2 CH2],EC50,cucumber cotyledon,64 µg/mL
CC(C)(C)NC(=N)N[N+](=O)[O-] [(CH3)3 C],ED50,cucumber cotyledon,31 ppm
C/C(Cl)=C/CNC(=N)N[N+](=O)[O-],EC50,cucumber cotyledon,1 µg/mL
CCC(C)(C)NC(=N)N[N+](=O)[O-] [C2 H5 C(CH3)2],EC50,cucumber cotyledon,22 µg/mL
C=CC(C)(C)NC(=N)N[N+](=O)[O-] [CH2CHC(CH3)2],ED50,cucumber cotyledon,157 ppm
"c1ccc(CNc2ncnc3nc[nH]c23)cc1 [N^6 benzyladenine, N^6 -benzyladenine]",Relative Chlorophyll,"cucumber cotyledons; Experiment A, 0.1 ppm, antagonist none, H2O alone 370",853
same,Relative Chlorophyll,"cucumber cotyledons; Experiment A, 0.1 ppm, with antagonist 10 ppm, H2O alone 370",460
same,optimum concentration of the standard,Soybean callus,10^-6 M
same,effect on callus growth at 10^-4 M,Soybean callus; 10^-4 M,supraoptimal effect whereby the beneficial effect was negated
same,Callus Dry Weight,Soybean callus; 10^-4 M,28 ± 5 mg per 3 pieces
same,Callus Fresh Weight,Soybean callus; 10^-4 M,434 ± 193 mg per 3 pieces
same,Callus Dry Weight,Soybean callus; 10^-6 M,351 ± 63 mg per 3 pieces
same,Callus Fresh Weight,Soybean callus; 10^-6 M,5826 ± 1110 mg per 3 pieces
N=C(NCCCCO)N[N+](=O)[O-] [HOCH2 CH2 CH2 CH2],EC50,cucumber cotyledon,113 µg/mL
C/C(=C\CNC(=N)N[N+](=O)[O-])CO,EC50,cucumber cotyledon,2.5 µg/mL
"Cc1n[nH]c2c(NCCC(C)C)ncnc12 [7-(Isopentylamine)-3-methyl-1H-Pyrazolo[4,3-d]pyrimidine]",Relative Chlorophyll,cucumber cotyledons,415 and 406
same,effect of antagonist on response of cucumber cotyledons to N^6-benzyladenine,cucumber cotyledons,prevents the response of cucumber cotyledons
same,prevention of enhancement of chlorophyll synthesis,cucumber cotyledons,able to fully prevent the enhancement of chlorophyll synthesis
same,"antagonist concentration decreasing the effect of 2iP, detectable","[2]; detectable, against 2iP",0.1 µM
same,"antagonist concentration decreasing the effect of 2iP, lethal","[2]; lethal, against 2iP",0.73 µM
CCCCCNC(=N)N[N+](=O)[O-] [-n-C5 H11],EC50,cucumber cotyledon,31 µg/mL
CC(CO)CCNC(=N)N[N+](=O)[O-] (centres unmarked),EC50,cucumber cotyledon,14 µg/mL
CCOCCNC(=N)N[N+](=O)[O-] [C2 H5 OCH2 CH2],EC50,cucumber cotyledon,113 µg/mL
"CC(C)=CCNc1ncnc2nc[nH]c12 [2iP, 6-(3-methyl-2-butenylamino)purine]",concentration required for maximum growth of tobacco callus tissue cultures,[2],0.003 µM
N=C(NCCC=C(Cl)Cl)N[N+](=O)[O-] [(Cl)2 CCHCH2 CH 2],EC50,cucumber cotyledon,11 µg/mL
N=C(NCCCC(N)C(=O)O)N[N+](=O)[O-] (centres unmarked),EC50,cucumber cotyledon,31 µg/mL
